The results in this text go back to ChEMBL document CHEMBL3045162, “Inhibition of HIV-1 replication by a tricyclic coumarin GUT-70 in acutely and chronically infected cells” (Bioorg Med Chem Lett, 2013).

Series [1] concerns U1. The experiment in a line: Inhibition of NF-kappaB-mediated viral replication in Homo sapiens (human) U1 cells […] at 10 uM after 24 hr by RT-PCR analysis in presence of TNF-alpha. In kind it is cell-based.
For series [2], the system named is Human immunodeficiency virus 1. The experiment in a line: Antiviral activity against X4 tropic Human immunodeficiency virus 1 NL4-3 infected human Molt4 cells assessed as intracellular p24 expression at 10 uM after 4 days by flow cytometry. It is filed as functional, organism-based. The following applies: MOLT-4. (Flow cytometry measures light scatter and fluorescence of single cells or particles in a stream.)

The subject of series [3] is Human immunodeficiency virus 1. In words: Antiviral activity against X4 tropic Human immunodeficiency virus 1 NL4-3 infected human Molt4 cells assessed as intracellular p24 expression after 4 to 7 days by flow cytometry. In kind it is functional, organism-based. The following applies: Human immunodeficiency virus 1, NL4-3, MOLT-4.
Series [4] in a line: Selectivity index, ratio of IC50 for human MOLT4 cells to EC50 for X4 tropic HIV1 NL4-3 infected in human Molt4 cells. The settings on record: read-out: Ratio IC50/EC50. In kind it is toxicity, cell-based, MOLT-4.
The subject of series [5] is U1. The experiment in a line: Cytotoxicity against Homo sapiens (human) U1 cells by MTT assay in presence of PMA. It is filed as cell-based. For orientation: Tetrazolium dyes change colour on reduction, which living cells bring about.
The test system of a further series is TZM-bl. The experiment in a line: Inhibition of NF-kappaB-mediated viral replication in Homo sapiens (human) TZM-bl cells infected with X4 tropic HIV1 NL4-3 compound pre-treated for 2hr before infection measured after 24 hr by luciferase assay. In kind it is cell-based.
Series [6] can be described thus: Selectivity index, ratio of IC50 for PMA-stimulated human U1 cells to EC50 for X4 tropic HIV1 NL4-3 infected in PMA-stimulated human U1 cells. In kind it is toxicity, cell-based. The settings on record: with X4 tropic HIV1 NL4-3, read-out: Ratio IC50/EC50.
A short description of series [7]: Cytotoxicity against Homo sapiens (human) TZM-bl cells by MTT assay. In kind it is cell-based.
Series [8] concerns U1. In words: Cytotoxicity against Homo sapiens (human) U1 cells by MTT assay in presence of TNF-alpha. It is filed as cell-based.
The target of series [9] is Transcription factor p65 (Homo sapiens) (UniProt Q04206). The experiment in a line: Inhibition of NF-kappa B p65 activity in TNFalpha-treated Homo sapiens (human) U1 cells at 10 uM after 2 to 4 hr by luciferase assay. In kind it is cell-based.
Series [10] shares this target. The experiment in a line: Binding affinity to NF-kappa B p65 in Homo sapiens (human) U1 nuclear extract after 0.5 to 4 hr by competitive EMSA. On the technique in general: A gel shift assay detects complexes by their altered migration in electrophoresis.
For series [11], the system named is MOLT-4. In words: Cytotoxicity against Homo sapiens (human) MOLT4 cells by MTT assay. It is filed as cell-based.
In series [12] the test system is Human immunodeficiency virus 1. The experiment in a line: Antiviral activity against Human immunodeficiency virus 1 infected U1 cells assessed as intracellular p24 expression after 24 hr by flow cytometry in presence of PMA. It is filed as functional, organism-based.
Series [13] has as its target Transcription factor p65 (Homo sapiens) (UniProt Q04206). In words: Reduction in NF-kappa B p65 cytosolic level in TNFalpha-treated Homo sapiens (human) U1 cells after 0.5 to 6 hr by Western blot analysis. In kind it is cell-based.
Series [14] in a line: Selectivity index, ratio of IC50 for TNF-alpha-stimulated human U1 cells to EC50 for X4 tropic HIV1 NL4-3 infected in TNF-alpha-stimulated human U1 cells. It is filed as toxicity, cell-based. The settings on record: with X4 tropic HIV1 NL4-3, read-out: Ratio IC50/EC50.
Series [15] concerns Human immunodeficiency virus 1. The experiment in a line: Antiviral activity against Human immunodeficiency virus 1 infected U1 cells assessed as intracellular p24 expression after 24 hr by flow cytometry in presence of TNF-alpha. In kind it is functional, organism-based.
In series [16] the target is Transcription factor p65 (Homo sapiens) (UniProt Q04206). In words: Inhibition of NF-kappa B p65 nuclear translocation in TNFalpha-treated Homo sapiens (human) U1 cells after 0.5 to 6 hr by Western blot analysis. In kind it is cell-based.
For series [17], the system named is MOLT-4. In words: Inhibition of NF-kappaB-mediated viral replication in Homo sapiens (human) Molt-4 cells infected with X4 tropic HIV1 NL4-3 at 10 uM after 24 hr by RT-PCR analysis. In kind it is cell-based.
The subject of series [18] is Human immunodeficiency virus 1. The experiment in a line: Antiviral activity against X4 tropic Human immunodeficiency virus 1 NL4-3 infected human Molt4 cells assessed as intracellular p24 expression at 10 uM after 7 days by flow cytometry. It is filed as functional, organism-based. The settings on record: MOLT-4.
Where [19] appears, read: Human immunodeficiency virus 1, U1, 24 h.

SMILES strings stand for the structures. Calls of active or inactive are those of the source. The rule behind the calls is not given here.

Transcription factor p65 (Homo sapiens), sequence (Q04206 whole entry): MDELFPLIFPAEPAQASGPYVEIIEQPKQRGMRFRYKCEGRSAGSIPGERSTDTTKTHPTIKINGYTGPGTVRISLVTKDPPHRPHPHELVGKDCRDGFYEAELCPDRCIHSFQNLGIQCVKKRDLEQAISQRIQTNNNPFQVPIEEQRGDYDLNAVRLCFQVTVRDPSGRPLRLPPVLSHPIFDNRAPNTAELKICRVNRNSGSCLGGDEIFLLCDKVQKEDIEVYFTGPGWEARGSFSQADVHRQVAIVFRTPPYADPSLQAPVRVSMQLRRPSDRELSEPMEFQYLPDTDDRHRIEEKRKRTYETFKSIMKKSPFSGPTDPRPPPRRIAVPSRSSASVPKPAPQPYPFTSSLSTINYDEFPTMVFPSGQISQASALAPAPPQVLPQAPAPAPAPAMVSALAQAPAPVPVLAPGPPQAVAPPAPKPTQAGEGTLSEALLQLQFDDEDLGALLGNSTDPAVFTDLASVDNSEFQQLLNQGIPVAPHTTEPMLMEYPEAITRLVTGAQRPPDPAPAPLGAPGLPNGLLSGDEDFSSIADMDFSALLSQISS

Consider `CC(C)(C)c1ccc(S(=O)(=O)/C=C/C#N)cc1`, for which the inhibition entry with U1 [1] is “Active”.

A word on the EC50: it is the midpoint of the concentration-response curve. Broadly, the IC50 is the concentration needed to halve the response being measured. Take `C/C=C(\C)C(=O)c1c(OC)c2c(c3c(CCC)cc(=O)oc13)OC(C)(C)C=C2`: the outcome in series [2], in series [10] and in series [18] was Active. For the same molecule, the results for the EC50 in series [3], in series [12] (setting [19]) and in series [15] (setting [19]) were 3.41 µM, 3.48 µM and 4.32 µM, respectively. For the same molecule, the selectivity ratio was greater than 2.93 in [4], 2.43 in series [6] and 1.95 in series [14]. In addition, the IC50 was 8.44 µM in the series with U1 [5], greater than 10 µM in series [7], 8.44 µM in the series on U1 [8] and greater than 10 µM in the series with MOLT-4 [11]. Moreover, the inhibition entry (with TZM-bl; in the series with U1 [1]; in series [9]; in series [16]; in the series with MOLT-4 [17]) was “Active” throughout. Moreover, the Activity result in [12] and in series [15] was “Dose-dependent effect” in each case. Moreover, the result in series [13] was inactive.

As for `CC(C)C[C@H](NC(=O)[C@H](Cc1ccccc1)NC(=O)c1cnccn1)B(O)O`, in the series on U1 [1], the inhibition entry was “Active”.
